Measurements from ChEMBL document CHEMBL5104138, “Discovery of pyridyl urea sulfonamide inhibitors of NaV1.7” (Bioorg Med Chem Lett, 2022).
Values after ≈ are worked out from the molar mass of the structure shown. Blank lines part the entries; values can stand above or below the compound they belong to.

Columns and labels:
[1] = target: T1, Sodium channel protein type 9 subunit alpha (Homo sapiens, UniProt Q15858); assay: Inhibition of human Nav1.7 at 1 uM by PatchXpress assay relative to control
Target sequence in this assay (Q15858 whole entry, looked up): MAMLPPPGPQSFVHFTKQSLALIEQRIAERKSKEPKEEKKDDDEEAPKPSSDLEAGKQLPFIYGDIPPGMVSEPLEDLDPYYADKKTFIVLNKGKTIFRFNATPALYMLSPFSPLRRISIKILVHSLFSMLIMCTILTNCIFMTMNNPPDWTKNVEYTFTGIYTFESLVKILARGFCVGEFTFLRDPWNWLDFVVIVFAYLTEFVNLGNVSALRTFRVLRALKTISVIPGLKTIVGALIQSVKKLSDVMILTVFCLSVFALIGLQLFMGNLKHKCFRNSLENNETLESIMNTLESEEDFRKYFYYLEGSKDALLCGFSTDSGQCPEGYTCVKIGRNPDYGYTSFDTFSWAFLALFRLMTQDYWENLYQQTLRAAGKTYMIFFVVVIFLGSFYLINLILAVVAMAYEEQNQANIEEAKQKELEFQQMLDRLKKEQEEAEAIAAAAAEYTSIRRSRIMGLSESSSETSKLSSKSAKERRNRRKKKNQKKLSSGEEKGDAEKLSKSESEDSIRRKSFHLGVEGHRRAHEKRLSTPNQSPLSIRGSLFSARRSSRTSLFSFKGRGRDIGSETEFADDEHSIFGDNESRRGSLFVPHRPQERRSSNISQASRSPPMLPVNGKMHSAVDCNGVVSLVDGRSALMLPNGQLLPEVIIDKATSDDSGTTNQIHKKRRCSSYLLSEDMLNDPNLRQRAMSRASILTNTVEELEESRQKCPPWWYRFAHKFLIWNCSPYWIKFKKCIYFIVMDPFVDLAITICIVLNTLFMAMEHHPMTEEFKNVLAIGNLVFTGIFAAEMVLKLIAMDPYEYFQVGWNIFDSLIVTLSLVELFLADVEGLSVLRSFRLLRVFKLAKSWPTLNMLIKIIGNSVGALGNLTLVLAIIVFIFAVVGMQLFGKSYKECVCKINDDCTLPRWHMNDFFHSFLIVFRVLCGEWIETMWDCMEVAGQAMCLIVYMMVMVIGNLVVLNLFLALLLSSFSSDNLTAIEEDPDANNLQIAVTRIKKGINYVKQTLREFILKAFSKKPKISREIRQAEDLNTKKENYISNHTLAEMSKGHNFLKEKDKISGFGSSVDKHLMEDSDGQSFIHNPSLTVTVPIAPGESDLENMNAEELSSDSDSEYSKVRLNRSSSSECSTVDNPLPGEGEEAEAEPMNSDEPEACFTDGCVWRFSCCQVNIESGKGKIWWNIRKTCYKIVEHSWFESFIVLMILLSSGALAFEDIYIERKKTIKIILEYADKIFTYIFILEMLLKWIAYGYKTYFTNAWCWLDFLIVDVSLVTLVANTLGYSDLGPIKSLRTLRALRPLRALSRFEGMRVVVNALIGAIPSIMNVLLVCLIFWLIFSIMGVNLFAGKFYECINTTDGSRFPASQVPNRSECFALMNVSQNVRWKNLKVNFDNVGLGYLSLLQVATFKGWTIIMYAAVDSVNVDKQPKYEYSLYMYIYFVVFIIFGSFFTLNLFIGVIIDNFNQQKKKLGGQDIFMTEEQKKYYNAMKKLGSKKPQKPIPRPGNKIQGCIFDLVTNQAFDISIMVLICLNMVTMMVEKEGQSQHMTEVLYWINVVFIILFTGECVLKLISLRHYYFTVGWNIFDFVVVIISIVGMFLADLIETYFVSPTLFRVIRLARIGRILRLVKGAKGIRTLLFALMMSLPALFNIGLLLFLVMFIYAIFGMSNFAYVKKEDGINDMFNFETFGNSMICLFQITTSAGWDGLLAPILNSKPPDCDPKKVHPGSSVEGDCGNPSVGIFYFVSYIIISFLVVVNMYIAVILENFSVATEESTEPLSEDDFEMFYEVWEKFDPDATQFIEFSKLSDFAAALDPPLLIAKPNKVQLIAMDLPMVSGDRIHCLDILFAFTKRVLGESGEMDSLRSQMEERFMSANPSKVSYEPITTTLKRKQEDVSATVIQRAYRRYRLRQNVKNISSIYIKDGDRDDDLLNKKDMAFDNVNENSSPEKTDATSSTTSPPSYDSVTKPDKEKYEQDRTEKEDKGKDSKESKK

[2] = rat, in vivo, iv, 0.5 mg/kg
Description: Unbound clearance in rat at 0.5 mg/kg, iv

[3] = Clearance in rat at 0.5 mg/kg, iv; settings: in vivo
[4] = target: T1, Sodium channel protein type 9 subunit alpha; assay: Inhibition of human Nav1.7 by PatchXpress assay
Target sequence in this assay (Q15858 whole entry): as the sequence (Q15858 whole entry, looked up) above

[5] = Passive permeability of compound; format: ADME; settings: not told; read-out: permeability
Cytochrome P450 3A4 [6] = target: T2, Cytochrome P450 3A4 (Homo sapiens, UniProt P08684); assay: Time dependent inhibition of CYP3A4 in human liver microsomes using midazolam as substrate incubated for 30 mins; format: ADME, Microsome
T2 sequence (P08684 whole entry): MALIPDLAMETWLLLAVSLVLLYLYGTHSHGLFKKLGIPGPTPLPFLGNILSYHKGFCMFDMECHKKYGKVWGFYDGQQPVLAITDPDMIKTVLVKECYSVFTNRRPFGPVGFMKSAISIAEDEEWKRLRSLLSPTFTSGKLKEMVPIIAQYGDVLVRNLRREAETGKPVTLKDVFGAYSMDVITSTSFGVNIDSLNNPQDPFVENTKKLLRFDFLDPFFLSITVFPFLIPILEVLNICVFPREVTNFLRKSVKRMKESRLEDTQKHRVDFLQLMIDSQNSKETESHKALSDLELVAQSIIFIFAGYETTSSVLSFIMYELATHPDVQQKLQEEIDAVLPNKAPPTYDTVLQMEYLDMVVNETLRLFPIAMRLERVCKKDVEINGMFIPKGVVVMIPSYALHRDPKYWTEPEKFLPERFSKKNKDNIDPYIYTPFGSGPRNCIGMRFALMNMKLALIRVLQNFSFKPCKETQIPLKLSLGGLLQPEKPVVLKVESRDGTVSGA

Cytochrome P450 3A4 [7] = target: T2, Cytochrome P450 3A4; assay: Time dependent inhibition of CYP3A4 in human liver microsomes using midazolam as substrate preincubated for 30 mins followed by substrate addition; format: ADME, Microsome
[8] = Intrinsic clearance in rat liver microsomes assessed as loss of parent compound incubated for 30 mins; format: ADME, Microsome; settings: read-out: CLH
[9] = Lipophilicity, logD of compound at pH 7.4; format: physicochemical; settings: buffer
Cytochrome P450 2C9 [10] = target: T3, Cytochrome P450 2C9 (Homo sapiens, UniProt P11712); assay: Inhibition of CYP2C9 (unknown origin) using diclofenac as substrate; format: ADME
T3 sequence (P11712 whole entry): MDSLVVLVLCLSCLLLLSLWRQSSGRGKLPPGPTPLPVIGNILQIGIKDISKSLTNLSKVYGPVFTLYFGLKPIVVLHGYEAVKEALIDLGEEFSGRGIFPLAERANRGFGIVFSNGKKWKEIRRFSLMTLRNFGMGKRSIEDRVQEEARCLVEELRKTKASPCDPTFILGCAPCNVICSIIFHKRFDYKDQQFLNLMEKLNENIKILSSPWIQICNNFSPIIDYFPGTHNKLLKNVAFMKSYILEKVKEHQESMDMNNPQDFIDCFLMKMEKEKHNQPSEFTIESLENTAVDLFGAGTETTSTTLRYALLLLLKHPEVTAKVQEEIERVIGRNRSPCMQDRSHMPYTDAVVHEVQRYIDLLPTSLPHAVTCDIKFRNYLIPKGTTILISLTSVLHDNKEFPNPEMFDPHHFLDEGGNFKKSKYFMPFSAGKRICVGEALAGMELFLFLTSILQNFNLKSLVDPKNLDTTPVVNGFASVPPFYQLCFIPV

[11] = Solubility of the compound at pH 7.4; format: physicochemical; settings: buffer
[12] = Oral bioavailability in dog at 2 mg/kg; format: ADME, organism-based, Canis lupus familiaris; settings: in vivo
[13] = AUC in rat at 10 mg/kg, po; format: ADME, organism-based; design: dose 10 mg/kg, route po; settings: in vivo
[14] = Half life in rat at 10 mg/kg, po; format: ADME, organism-based; settings: in vivo
Cytochrome P450 2C9 [15] = target: T3, Cytochrome P450 2C9; assay: Inhibition of CYP2C9 (unknown origin); format: ADME
[16] = Half life in mouse at 100 mg/kg, po; format: ADME, organism-based; settings: in vivo
Mus musculus [17] = assay: Antinociceptive activity in mouse model of Histamine-induced itching assessed as reduction in scratching bouts at 30 mg/kg, po relative to control; format: functional; design: scale not given: the % may be the effect or the level left
[18] = Oral bioavailability in mouse at 100 mg/kg; format: ADME, organism-based; settings: in vivo
[19] = Clearance in dog at 0.25 mg/kg, iv; format: ADME, organism-based, Canis lupus familiaris; settings: in vivo
Mus musculus [20] = assay: Antinociceptive activity in UV burn-induced thermal hyperalgesia mouse model assessed as reduction in latency time at 30 mg/kg, po relative to control; format: functional; design: scale not given: the % may be the effect or the level left
Mus musculus [21] = assay: Antinociceptive activity in capsaicin-induced licking mouse model assessed as reduction in time spent on licking at 10 mg/kg, po relative to control; format: functional; design: scale not given: the % may be the effect or the level left
PXR (NR1I2) = target: T4, PXR (NR1I2) (Homo sapiens, UniProt O75469); assay: Activation of human PXR at 10 uM relative to control; format: toxicity; settings: read-out: Activity
T4 sequence (O75469 whole entry): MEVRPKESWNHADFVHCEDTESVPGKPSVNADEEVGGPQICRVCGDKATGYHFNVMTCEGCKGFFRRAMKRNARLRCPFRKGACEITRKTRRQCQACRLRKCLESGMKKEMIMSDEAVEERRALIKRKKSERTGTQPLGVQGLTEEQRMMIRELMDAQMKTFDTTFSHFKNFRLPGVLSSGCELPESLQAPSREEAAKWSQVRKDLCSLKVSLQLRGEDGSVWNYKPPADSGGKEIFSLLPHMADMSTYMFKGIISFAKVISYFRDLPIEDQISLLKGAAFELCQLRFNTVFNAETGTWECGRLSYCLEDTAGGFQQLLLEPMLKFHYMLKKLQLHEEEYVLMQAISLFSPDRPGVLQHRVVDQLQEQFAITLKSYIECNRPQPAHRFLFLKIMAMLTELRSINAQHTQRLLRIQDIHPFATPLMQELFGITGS

[22] = Unbound clearance in dog at 0.25 mg/kg, iv; format: ADME, organism-based, Canis lupus familiaris; settings: in vivo
[23] = half life in dog at 2 mg/kg, po; format: ADME, organism-based, Canis lupus familiaris; settings: in vivo
[24] = Unbound clearance in mouse; format: ADME, organism-based; settings: in vivo
[25] = Permeability in MDCK cells; format: ADME, cell-based, Canis lupus familiaris; settings: dog, read-out: permeability
[26] = Clearance in mouse; format: ADME, organism-based; settings: in vivo
[27] = Oral bioavailability in rat at 10 mg/kg; format: ADME, organism-based; settings: in vivo
Mus musculus [28] = assay: Antinociceptive activity in mouse model of Histamine-induced itching assessed as reduction in scratching bouts at 3 mg/kg, po relative to control; format: functional; design: scale not given: the % may be the effect or the level left
[29] = AUC in mouse at 100 mg/kg, po; format: ADME, organism-based; design: dose 100 mg/kg, route po; settings: in vivo
[30] = AUC in dog at 2 mg/kg, po; format: ADME, organism-based, Canis lupus familiaris; design: dose 2 mg/kg, route po; settings: in vivo
[31] = target: Sodium channel protein type 5 subunit alpha (Homo sapiens, UniProt Q14524); assay: Inhibition of human Nav1.5 at -50 mV holding potential by PatchXpress assay
Sodium channel protein type 5 subunit alpha, sequence (Q14524 whole entry): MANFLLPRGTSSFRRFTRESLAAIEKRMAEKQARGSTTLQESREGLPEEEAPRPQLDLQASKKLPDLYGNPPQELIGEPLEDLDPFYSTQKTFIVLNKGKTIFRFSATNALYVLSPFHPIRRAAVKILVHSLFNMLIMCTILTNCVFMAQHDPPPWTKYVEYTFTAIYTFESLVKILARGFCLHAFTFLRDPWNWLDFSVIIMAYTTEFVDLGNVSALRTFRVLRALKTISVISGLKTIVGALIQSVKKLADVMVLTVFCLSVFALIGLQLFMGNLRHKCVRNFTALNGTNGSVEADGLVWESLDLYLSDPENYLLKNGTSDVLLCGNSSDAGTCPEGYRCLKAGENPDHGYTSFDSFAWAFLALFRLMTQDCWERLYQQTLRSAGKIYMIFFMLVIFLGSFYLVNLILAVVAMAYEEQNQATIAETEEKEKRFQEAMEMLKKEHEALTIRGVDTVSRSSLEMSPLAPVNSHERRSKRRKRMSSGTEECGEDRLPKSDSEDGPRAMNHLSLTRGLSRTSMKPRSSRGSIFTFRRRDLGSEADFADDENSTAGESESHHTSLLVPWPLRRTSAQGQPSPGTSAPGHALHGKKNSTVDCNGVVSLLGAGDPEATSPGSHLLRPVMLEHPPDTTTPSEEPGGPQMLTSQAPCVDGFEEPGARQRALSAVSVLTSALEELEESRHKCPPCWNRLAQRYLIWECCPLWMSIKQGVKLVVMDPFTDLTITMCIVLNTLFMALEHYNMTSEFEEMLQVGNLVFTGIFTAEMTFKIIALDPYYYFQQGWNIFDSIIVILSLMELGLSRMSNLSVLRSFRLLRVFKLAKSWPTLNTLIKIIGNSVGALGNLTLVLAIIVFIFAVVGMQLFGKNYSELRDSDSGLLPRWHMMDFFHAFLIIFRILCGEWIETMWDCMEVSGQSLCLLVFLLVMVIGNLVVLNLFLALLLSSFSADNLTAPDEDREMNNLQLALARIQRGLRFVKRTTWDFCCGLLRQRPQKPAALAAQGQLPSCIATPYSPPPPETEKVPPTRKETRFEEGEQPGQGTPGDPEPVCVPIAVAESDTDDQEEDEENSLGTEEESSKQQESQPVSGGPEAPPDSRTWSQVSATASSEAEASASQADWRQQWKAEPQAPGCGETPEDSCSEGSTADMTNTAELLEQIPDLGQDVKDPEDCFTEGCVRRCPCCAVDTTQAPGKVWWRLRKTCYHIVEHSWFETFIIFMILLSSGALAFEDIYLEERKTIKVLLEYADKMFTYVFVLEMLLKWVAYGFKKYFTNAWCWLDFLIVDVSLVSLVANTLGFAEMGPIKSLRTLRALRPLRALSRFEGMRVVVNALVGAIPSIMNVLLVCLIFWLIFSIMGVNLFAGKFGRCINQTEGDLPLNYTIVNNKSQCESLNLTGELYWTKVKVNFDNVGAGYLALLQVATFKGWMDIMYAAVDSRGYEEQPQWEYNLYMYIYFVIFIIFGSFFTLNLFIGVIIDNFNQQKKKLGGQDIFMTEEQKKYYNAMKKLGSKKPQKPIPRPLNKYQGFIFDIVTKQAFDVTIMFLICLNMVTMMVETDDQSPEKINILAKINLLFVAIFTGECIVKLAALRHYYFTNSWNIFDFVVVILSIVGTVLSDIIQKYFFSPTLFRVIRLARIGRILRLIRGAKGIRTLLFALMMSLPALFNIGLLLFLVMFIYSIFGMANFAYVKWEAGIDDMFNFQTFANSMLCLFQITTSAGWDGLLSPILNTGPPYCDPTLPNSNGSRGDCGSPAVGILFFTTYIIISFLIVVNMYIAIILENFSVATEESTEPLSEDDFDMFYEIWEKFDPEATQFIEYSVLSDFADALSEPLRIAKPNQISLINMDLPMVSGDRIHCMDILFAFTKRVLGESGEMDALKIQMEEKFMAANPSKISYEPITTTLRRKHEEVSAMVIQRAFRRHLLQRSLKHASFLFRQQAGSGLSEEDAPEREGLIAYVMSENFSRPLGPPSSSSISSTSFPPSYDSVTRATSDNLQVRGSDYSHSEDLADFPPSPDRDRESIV

Mus musculus [32] = assay: Antinociceptive activity in mouse model of Histamine-induced itching assessed as reduction in scratching bouts at 10 mg/kg, po relative to control; format: functional; design: scale not given: the % may be the effect or the level left

- inhibition [1]: 3.9%
SMILES: COc1cc(-c2ccc(Cl)c(C)c2)ccc1N(C(=O)NC(C)C)c1ccc(S(=O)(=O)Nc2ccon2)cn1

- CL free [2]: 10100 mL/min/kg
- clearance [3]: 35 mL/min/kg
- IC50 [4]: 0.008 µM
SMILES: COc1cc(-c2ccc(Cl)c(C#N)c2)c(F)cc1-n1c(=O)ccc2cc(S(=O)(=O)Nc3ccon3)ccc21

- inhibition [1]: 4.9%
SMILES: CNC(=O)C(c1ccc(S(=O)(=O)Nc2ccon2)cn1)c1ccc(-c2ccc(Cl)c(C)c2)cc1OC (centres undefined)

- microsomal CLint [8]: 29 µL/min/mg
- logD [9]: 0.8
- IC50 (Cytochrome P450 3A4 [6]): > 50 µM
- IC50 (Cytochrome P450 3A4 [7]): > 50 µM
- IC50 (Cytochrome P450 2C9 [10]): 3.3 µM
- CL free [2]: 6130 mL/min/kg
- clearance [3]: 14.7 mL/min/kg
- IC50 [4]: 0.087 µM
SMILES: CNC(=O)N(c1ccc(S(=O)(=O)Nc2ccon2)cn1)c1ccc(-c2ccc(Cl)c(C)c2)cc1OC

- IC50 (Cytochrome P450 3A4 [6]): 5 µM
- IC50 (Cytochrome P450 3A4 [7]): > 50 µM
- IC50 [4]: 0.017 µM
SMILES: CNC(=O)N(c1ccc(S(=O)(=O)Nc2ccon2)cn1)c1cc(Cl)c(-c2cccc(C(F)(F)F)c2)cc1OC

More lines, now with the values behind:

SMILES: COc1cc(-c2cccc(C(F)(F)F)c2)c(Cl)cc1N(C(N)=O)c1ccc(S(=O)(=O)Nc2ccon2)cn1
- Papp [5]: < 1.5 ×10⁻⁶ cm/s
- clearance [3]: 88.3 mL/min/kg
- IC50 [4]: 0.008 µM

SMILES: COc1cc(-c2ccc(Cl)c(C)c2)ccc1N(C(C)=O)c1ccc(S(=O)(=O)Nc2ccon2)cn1
- IC50 [4]: 2.91 µM

SMILES: CNC(=O)N(c1ccc(S(=O)(=O)Nc2ccon2)cn1)c1cc(Cl)c(-c2cc(OC)cc(C(F)(F)F)c2)cc1OC
- IC50 (Cytochrome P450 3A4 [6]): 17 µM
- IC50 (Cytochrome P450 3A4 [7]): > 50 µM

SMILES: CNC(=O)N(c1ccc(S(=O)(=O)Nc2ccon2)cn1)c1cc(Cl)c(-c2cc(F)c(F)c(F)c2)cc1OC
- logD [9]: 0.7
- IC50 (Cytochrome P450 3A4 [6]): > 50 µM
- IC50 (Cytochrome P450 3A4 [7]): > 50 µM
- CL free [2]: 4770 mL/min/kg
- clearance [3]: 33.3 mL/min/kg

SMILES: CNC(=O)N(c1ccc(S(=O)(=O)Nc2ccon2)cc1)c1ccc(-c2ccc(Cl)c(C)c2)cc1OC
- Papp [5]: 1.5 ×10⁻⁶ cm/s
- CL free [2]: 3000 mL/min/kg
- clearance [3]: 22.2 mL/min/kg
- IC50 [4]: 3.8 µM

SMILES: CNC(=O)N(c1ccc(S(=O)(=O)Nc2ccon2)cn1)c1cc(Cl)c(-c2cccc(OCC(F)(F)F)c2)cc1OC
- IC50 (Cytochrome P450 3A4 [6]): 35 µM
- IC50 (Cytochrome P450 3A4 [7]): > 50 µM

SMILES: CNC(=O)N(c1ccc(S(=O)(=O)Nc2ncccn2)cn1)c1cc(Cl)c(-c2ccc(F)c(OC(F)(F)F)c2)cc1OC
- logD [9]: 1.6
- IC50 (Cytochrome P450 3A4 [6]): 11 µM
- IC50 (Cytochrome P450 3A4 [7]): > 50 µM

SMILES: CNC(=O)N(c1ccc(S(=O)(=O)Nc2ncccn2)cn1)c1cc(F)c(-c2ccc(F)c(OC(F)(F)F)c2)cc1OC
- solubility [11]: 260 µM (≈ 159 µg/mL)
- bioavailability [12]: 104%
- AUC [13]: 212 µM·h
- half-life [14]: 4.6 h
- IC50 (Cytochrome P450 2C9 [15]): 3.3 µM
- logD [9]: 1.4
- half-life [16]: 3.4 h
- Activity (Mus musculus [17]): 95%
- bioavailability [18]: 80%
- clearance [19]: 0.25 mL/min/kg
- Activity (Mus musculus [20]): 89%
- Activity (Mus musculus [21]): 63%
- activity at 10 µM (PXR (NR1I2)): 3%
- IC50 (Cytochrome P450 3A4 [6]): > 50 µM
- CL free [22]: 60 mL/min/kg
- half-life [23]: 18 h
- CL free [24]: 183 mL/min/kg
- Papp [25]: 18 ×10⁻⁶ cm/s
- clearance [26]: 1.67 mL/min/kg
- IC50 (Cytochrome P450 3A4 [7]): > 50 µM
- bioavailability [27]: 95%
- Activity (Mus musculus [28]): 55%
- AUC [29]: 1150 µM·h
- AUC [30]: 200 µM·h
- IC50 [31]: 40 µM
- CL free [2]: 733 mL/min/kg
- clearance [3]: 1.17 mL/min/kg
- Activity (Mus musculus [32]): 83%
